The test system of one experiment is Aspergillus species. The experiment can be described thus: Minimum inhibitory concentration (MIC) assay, filamentous fungi. Format: cell-based. As to conditions: antifungal activity, lowest concentration at which 75% inhibition of growth is observed after 48 h. How it is done:
(§1) The assays described below were used to measure the minimum inhibitory concentration (MIC) of a compound necessary to inhibit visible growth of the organism tested. These assays are adapted from NCCLS protocols M7-A4 and M27-A (NCCLS vol 17:9 and vol 17:2) as modified by Sandven, S., Clin. Micro. (1999) 37:12, p. 3856–3859. MIC values for Aspergillus species were determined using NCCLS protocol M38-P.
(§2) All compounds were dissolved in 100% DMSO to a stock concentration of 10 mM and used fresh stock compounds in powder form were kept frozen until needed and used freshly. When used for test purposes, compounds were diluted in the appropriate media depending on the organism being tested.
(§3) For yeast and aspergillus species, seven 1:2 serial dilutions of compound in appropriate media buffered with MOPS at pH 7.0 were prepared such that the final starting test compound concentrations were 44.4 μM for yeast and 50 μM aspergillus species. For bacteria, dilutions were made in growth media used for the particular bacteria being tested.
Inoculums are made by incubating Aspergillus species for 7 days at 35° C. on potato dextrose agar slants. Slants are then covered with 1.0 mL of 0.85% saline, one drop of Tween 20 is added and colonies are teased with a sterile transfer loop to create a suspension which is allowed to sit for 5 min so heavier particles can drop out. The upper suspension is separated and adjusted to an optical density of 0.09 to 0.11. The resulting suspension is diluted 1:50, which yields 2× the final inoculum needed. Micro dilution trays are prepared as with yeast and incubated for 48 h at 35° C. For our purposes the MIC is defined as the lowest compound concentration at which 75% inhibition of growth is observed after 48 h.

A further experiment concerns bacteria. The experiment can be described thus: Minimum inhibitory concentration (MIC) assay, bacteria. In kind it is cell-based. How it is done:
as §1, §2, §3
Five well-separated colonies from a 24 h Sabouraud Dextrose plate incubated at 35° C. were picked and resuspended into 2 mL of normal saline. The O.D.530 was read and the culture was adjusted to 0.5 McFarland units with normal saline. A 1:2000 dilution was made with RPMI 1640 media buffered with MOPS at pH 7.0 and 100 μL of this inoculum preparation was added to an equal volume of test compound-containing media. 25 μL of the redox indicator Alamar Blue (Biosource International) was added to each well and the plates were incubated for 48 h at 35° C. Wells having yeast growth changed color from blue to pink.
Inoculums are made in the same manner as yeast except all dilutions are made in normal saline, with a final dilution of 1:200 and an inoculum of 10 μL.

Where a name gives a salt, the structure may show the parent alone.

In the case of `CC(=N)NCCNC(=O)c1cc2cc(NC(=O)c3ccc4[nH]c(C(=O)NCCNC(C)=N)cc4c3)ccc2[nH]1` [Compound 9], in the experiment on Aspergillus species, the minimal inhibitory concentration (MIC) was ≤ 50 µM.

In the case of `N=C(N)NCCNC(=O)c1cc2cc(NC(=O)c3ccc4[nH]c(C(=O)NCCNC(=N)N)cc4c3)ccc2[nH]1` [Compound 10, 1H-Indole-2,5-dicarboxylic acid 2-[(2-gutanidino-ethyl)-amide] 5-{[2-(2-guanidino-ethylcarbamoyl)-1H-indol-5-yl]-amide}], the MIC is ≤ 50 µM against Aspergillus species and ≤ 45.5 µM in the experiment on bacteria.

In the case of `N=C(N)NCC1CCC(CNC(=O)c2cc3cc(NC(=O)c4ccc5[nH]c(C(=O)NCC6CCC(CNC(=N)N)CC6)cc5c4)ccc3[nH]2)CC1` (stereo not shown) [Compound 18, 1H-Indole-2,5-dicarboxylic acid 2-[(4-guanidinomethyl-cyclohexylmethyl)-amide] 5-({2-[(4-guanidinomethyl-cyclohexylmethyl)-carbamoyl}-1H-indol-5-yl}-amide)], the minimal inhibitory concentration (MIC) with Aspergillus species is ≤ 50 µM; in the experiment with bacteria, ≤ 45.5 µM.

Regarding `N=C(N)NCC(O)CNC(=O)c1cc2cc(NC(=O)c3ccc4[nH]c(C(=O)NCC(O)CNC(=N)N)cc4c3)ccc2[nH]1` (stereo not shown) [Compound 19, 1H-Indole-2,5-dicarboxylic acid 2-[(3-guanidino-2-hydroxy-propyl)-amide] 5-{[2-(3-guanidino-2-hydroxy-propylcarbamoyl)-1H-indol-5-yl]-amide}], the results for the MIC in the experiment with Aspergillus species and against bacteria were ≤ 50 µM and ≤ 45.5 µM, respectively.

As to `N=C(N)NCCCCCNC(=O)c1cc2cc(NC(=O)c3ccc4[nH]c(C(=O)NCCCCCNC(=N)N)cc4c3)ccc2[nH]1` [Compound 20, 1H-Indole-2,5-dicarboxylic acid 2-[(5-guanidino-pentyl)-amide] 5-{[2-(5-guanidino-pentylcarbanzoyl)-1H-indol-5-yl]-amide}], the minimal inhibitory concentration (MIC) is ≤ 50 µM against Aspergillus species and ≤ 45.5 µM against bacteria.

`N=C(N)NC1CCC(NC(=O)c2cc3cc(NC(=O)c4ccc5[nH]c(C(=O)NC6CCC(NC(=N)N)CC6)cc5c4)ccc3[nH]2)CC1` (stereo not shown) [Compound 21, 1H-Indole-2,5-dicarboxylic acid 2-[(4-guanidino-cyclohexyl)-amide] 5-{[2-(4-guaizidino-cyclohexylcarbamoyl)-1H-indol-5-yl]-amide}]: the MIC was ≤ 50 µM against Aspergillus species and ≤ 45.5 µM in the experiment with bacteria.

As to `CC(C)Cn1cc(NC(=O)c2ccc3[nH]c(C(=O)NCCNC(=N)N)cc3c2)cc1C(=O)NCCNC(=N)N` [Compound 29, 1H-indole-2,5-dicarboxylic acid 2-[(2-guanidino-ethyl)-amide] 5-{[5-(2-guanidino-ethylcarbamoyl)-1-isobutyl-1H-pyrrol-3-yl]-amide}], the MIC in the experiment on bacteria is ≤ 45.5 µM.

`N=C(N)NCCC[C@H](N)C(=O)NCCCNC(=O)c1cc2ccc(NC(=O)c3cc4cc(C(=O)NCCNC(=O)[C@@H](N)CCCNC(=N)N)ccc4[nH]3)cc2[nH]1` [Compound 66, 1H-Indole-2,5-dicarboxylic acid 5-{[2-(2-amino-5-guanidino-pentanoylamino)-ethyl]-amide} 2-({2-[3-(2-amino-5-guanidino-pentanoylamino)-propylcarbamoyl]-1H-indol-6-yl}-amide)]: the MIC against bacteria was ≤ 45.5 µM.

For the compound `N=C(N)NCCNC(=O)c1ccc(C(=O)Nc2ccc3[nH]c(C(=O)NCCNC(=N)N)cc3c2)cc1` [Compound 70, N-(2-Guanidino-ethyl)-N′-[2-(2-guanidino-ethylcarbamoyl)-1H-indol-5-yl]-terephthalamide], in the experiment on Aspergillus species, the MIC is ≤ 50 µM.

With `C/N=C(/NCCNC(=O)c1ccc2[nH]c(C(=O)Nc3ccc4[nH]c(C(=O)NCCN/C(=N/C)SC)cc4c3)cc2c1)SC` [Compound 90, 1H-Indole-2,5-dicarboxylic acid 5-{[2-(2,3-dimethylisothioureido)ethyl]amide} 2-({2-[2-(2,3-dimethylisothioureido)ethylcarbamoyl]-1H-indol-5-yl}amide)dihydrochloride], in the experiment on bacteria, the MIC is ≤ 45.5 µM.

Consider `CC(C)(C)OC(=O)NCCNC(=O)c1cc2cc(NC(=O)c3cc4cc(N)ccc4[nH]3)ccc2[nH]1` [Compound 107, [2-({5-[(5-Amino-1H-indole-2-carbonyl)-amino]-1H-indole-2-carbonyl}-amino)-ethyl]-carbamic acid tert-butyl ester], for which the minimum inhibitory concentration (MIC) against bacteria was ≤ 45.5 µM.

On to `N=C(N)NCCNC(=O)c1cc2cc(NC(=O)c3cc4cc(NC(=O)CNC(=N)N)ccc4o3)ccc2[nH]1` [Compound 135, 5-{[5-(2-guanidino-acetylamino)-benzofuran-2-carbonyl]-amino}-1H-indole-2-carboxylic acid (2-guanidino-ethyl)-amide], for which, in the experiment on Aspergillus species, the minimal inhibitory concentration (MIC) was ≤ 50 µM.

Regarding `N=C(N)NCCNC(=O)c1cc2cc(NC(=O)c3cc4cc(NC(=O)CNC(=N)N)ccc4[nH]3)ccc2[nH]1` [Compound 138, 5-{[5-(2-guanidino-acetylamino)-1H-indole-2-carbonyl]-amino}-1H-indole-2-carboxylic acid (2-guanidino-ethyl)-amide], the MIC against Aspergillus species was ≤ 50 µM.

As for `C[n+]1ccccc1NCCNC(=O)c1ccc2[nH]c(C(=O)Nc3ccc4cc(C(=O)NCCNc5cccc[n+]5C)[nH]c4c3)cc2c1` [Compound 170, 1H-Indole-2,5-dicarboxylic acid 5-[(2-(1-methylpyridiniu-2-yl)amino-ethyl)-amide] 2-{[2-(2-(1-methylpyridiniu-2-yl)amino-ethylcarbamoyl)-1H-indol-6-yl]-amide}], in the experiment with Aspergillus species, the minimum inhibitory concentration (MIC) was ≤ 50 µM.

In the case of `N=C(N)NCCNC(=O)c1cc2ccc(NC(=O)c3cc4cc(C(=O)NCNC(=N)N)ccc4[nH]3)cc2[nH]1` [Compound 172, 1H-Indole-2,5-dicarboxylic acid 2-{[2-(2-guanidino-ethylcarbamoyl)-1H-indol-6-yl]-amide} 5-guanidinomethyl-amide], the MIC in the experiment with Aspergillus species is ≤ 50 µM.

As for `N=C(N)NCNC(=O)c1ccc2[nH]c(C(=O)Nc3ccc4cc(C(=O)NCNC(=N)N)[nH]c4c3)cc2c1` [Compound 173, 1H-Indole-2,5-dicarboxylic acid 5-guanidinomethyl-amide 2-{[2-(guanidinomethyl-carbamoyl)-1H-indol-6-yl]-amide}], the minimum inhibitory concentration (MIC) with Aspergillus species is ≤ 50 µM.

Take `N=C(N)NCCNC(=O)c1ccc2[nH]c(C(=O)Nc3ccc4[nH]c(C(=O)NCCNC(=N)N)nc4c3)cc2c1` [Compound 175, 1H-Indole-2,5-dicarboxylic acid 5-[(2-guanidino-ethyl)-amide] 2-{[2-(2-guanidino-ethylcarbamoyl)-1H-benzoimidazol-5-yl]-amide)]: the minimum inhibitory concentration (MIC) in the experiment on Aspergillus species was ≤ 50 µM.

On to `CN(CCNC(=N)N)C(=O)c1ccc2[nH]c(C(=O)Nc3ccc4cc(C(=O)NCCNC(=N)N)[nH]c4c3)cc2c1` [Compound 176, 1H-Indole-2,5-dicarboxylic acid 2-{[2-(2-guanidino-ethylcarbamoyl)-1H-indol-6-yl]-amide} 5-[(2-guanidino-ethyl)-methyl-amide]], for which the MIC in the experiment with Aspergillus species is ≤ 50 µM.

As for `N=C(N)NCCNC(=O)c1ccc2sc(C(=O)Nc3ccc4sc(C(=O)NCCNC(=N)N)cc4c3)cc2c1` [Compound 177, Benzo[b]thiophene-2,5-dicarboxylic acid 5-[(2-guanidino-ethyl)-amide]2-{[2-(2-guanidino-ethylcarbamoyl)-benzo[b]thiophen-5-yl]-amide}], the MIC against Aspergillus species is ≤ 50 µM.

With `N=C(N)NCCNC(=O)c1ccc2[nH]c(C(=O)Nc3ccc4cc(C(=O)NCCNC(=N)N)sc4c3)cc2c1` [Compound 178, 1H-Indole-2,5-dicarboxylic acid 5-[(2-guanidino-ethyl)-amide] 2-{[2-(2-guanidino-ethylcarbamoyl)-benzo[b]thiophen-6-yl]-amide}], the minimal inhibitory concentration (MIC) with Aspergillus species was ≤ 50 µM.

In the case of `CNCCNC(=O)c1cc2ccc(NC(=O)c3cc4cc(C(=O)NCCNC(=N)N)ccc4[nH]3)cc2[nH]1` [Compound 182, 1H-Indole-2,5-dicarboxylic acid 5-[(2-guanidinoethyl)amide] 2-{[2-(2-methylaminoethylcarbamoyl)-1H-indol-6-yl]amide}], the MIC in the experiment on Aspergillus species was ≤ 50 µM.

Regarding `CN(C)CCNC(=O)c1cc2ccc(NC(=O)c3cc4cc(C(=O)NCCNC(=N)N)ccc4[nH]3)cc2[nH]1` [Compound 183, 1H-Indole-2,5-dicarboxylic acid 2-{[2-(2-dimethylaminoethylcarbamoyl)-1H-indol-6-yl]amide} 5-[(2-guanidinoethyl)amide]], the MIC with Aspergillus species is ≤ 50 µM.

For `N#C/N=C(/N)NCCNC(=O)c1cc2ccc(NC(=O)c3cc4cc(C(=O)NCCNC(=N)N)ccc4[nH]3)cc2[nH]1` [Compound 184, 1H-Indole-2,5-dicarboxylic acid 5-{[2-(guanidino)ethyl]amide} 2-({2-[2-(N′-cyanoguanidino)ethylcarbamoyl]-1H-indol-6-yl}amide)], the MIC against Aspergillus species is ≤ 50 µM.

The values above are taken from US7141680B2, “Aromatic compounds possessing antifungal or antibacterial activity” (Genelabs Technologies, Inc., priority 2002, dated 2006).
